Source: PMC4658394 (ChemMedChem, 2015)
pIC50: −log10 of the molar value. Each block holds one compound with its values, some of them ahead of it.

Experiments:
MMP-12 = MMP-12 (Homo sapiens, UniProt P39900); assay: MMP-12 fluorogenic substrate assay with competing metalloprotein MT; conditions: MMP-12 0.68 nM
MMP-2 = target: T1, MMP-2 (Homo sapiens, UniProt P08253); assay: MMP-2 fluorogenic substrate assay with competing metalloproteins; assay type: biochemical; conditions: MMP-2 2.7 nM
T1 sequence (P08253 110-660): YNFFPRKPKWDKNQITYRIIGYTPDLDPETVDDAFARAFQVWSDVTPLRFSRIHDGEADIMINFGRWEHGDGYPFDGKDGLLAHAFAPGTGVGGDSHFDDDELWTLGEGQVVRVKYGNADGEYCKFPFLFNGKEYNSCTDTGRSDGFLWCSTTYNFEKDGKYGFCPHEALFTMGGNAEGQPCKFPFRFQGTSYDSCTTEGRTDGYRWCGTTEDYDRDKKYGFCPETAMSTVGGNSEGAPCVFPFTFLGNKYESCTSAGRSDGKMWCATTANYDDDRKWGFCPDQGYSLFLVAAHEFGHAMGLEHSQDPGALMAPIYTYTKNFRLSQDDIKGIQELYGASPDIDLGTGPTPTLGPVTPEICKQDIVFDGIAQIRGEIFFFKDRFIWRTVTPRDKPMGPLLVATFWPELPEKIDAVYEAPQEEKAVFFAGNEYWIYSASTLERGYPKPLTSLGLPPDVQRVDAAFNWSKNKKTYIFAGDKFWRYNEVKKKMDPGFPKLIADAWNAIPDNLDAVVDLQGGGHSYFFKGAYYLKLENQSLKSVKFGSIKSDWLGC

HDAC-1 = HDAC-1 (Homo sapiens, UniProt Q13547); assay: HDAC-1 fluorogenic assay with competing metalloprotein MT; assay type: biochemical; conditions: 53 nM SAHA, HDAC-1 0.25 μM, various concentrations of MT
Sequence of HDAC-1 (Q13547 whole entry): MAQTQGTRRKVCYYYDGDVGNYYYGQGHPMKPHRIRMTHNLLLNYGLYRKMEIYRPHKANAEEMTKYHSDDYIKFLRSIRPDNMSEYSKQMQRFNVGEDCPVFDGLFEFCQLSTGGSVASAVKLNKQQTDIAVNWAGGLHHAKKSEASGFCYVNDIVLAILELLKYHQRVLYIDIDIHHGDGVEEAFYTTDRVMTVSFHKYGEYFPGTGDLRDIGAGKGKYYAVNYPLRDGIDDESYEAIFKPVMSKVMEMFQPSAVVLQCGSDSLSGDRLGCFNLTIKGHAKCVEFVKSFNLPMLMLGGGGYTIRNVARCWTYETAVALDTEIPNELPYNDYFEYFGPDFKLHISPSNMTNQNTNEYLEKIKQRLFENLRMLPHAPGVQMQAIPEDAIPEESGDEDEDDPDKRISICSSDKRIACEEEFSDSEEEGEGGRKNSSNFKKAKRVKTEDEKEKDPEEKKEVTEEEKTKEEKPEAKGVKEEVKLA

HDAC-6 = target: T2, HDAC-6 (Homo sapiens, UniProt Q9UBN7); assay: HDAC-6 fluorogenic assay with competing metalloprotein MT; assay type: biochemical; conditions: 22 nM SAHA, HDAC-6 0.16 μM, various concentrations of MT
T2 sequence (Q9UBN7 1-1215): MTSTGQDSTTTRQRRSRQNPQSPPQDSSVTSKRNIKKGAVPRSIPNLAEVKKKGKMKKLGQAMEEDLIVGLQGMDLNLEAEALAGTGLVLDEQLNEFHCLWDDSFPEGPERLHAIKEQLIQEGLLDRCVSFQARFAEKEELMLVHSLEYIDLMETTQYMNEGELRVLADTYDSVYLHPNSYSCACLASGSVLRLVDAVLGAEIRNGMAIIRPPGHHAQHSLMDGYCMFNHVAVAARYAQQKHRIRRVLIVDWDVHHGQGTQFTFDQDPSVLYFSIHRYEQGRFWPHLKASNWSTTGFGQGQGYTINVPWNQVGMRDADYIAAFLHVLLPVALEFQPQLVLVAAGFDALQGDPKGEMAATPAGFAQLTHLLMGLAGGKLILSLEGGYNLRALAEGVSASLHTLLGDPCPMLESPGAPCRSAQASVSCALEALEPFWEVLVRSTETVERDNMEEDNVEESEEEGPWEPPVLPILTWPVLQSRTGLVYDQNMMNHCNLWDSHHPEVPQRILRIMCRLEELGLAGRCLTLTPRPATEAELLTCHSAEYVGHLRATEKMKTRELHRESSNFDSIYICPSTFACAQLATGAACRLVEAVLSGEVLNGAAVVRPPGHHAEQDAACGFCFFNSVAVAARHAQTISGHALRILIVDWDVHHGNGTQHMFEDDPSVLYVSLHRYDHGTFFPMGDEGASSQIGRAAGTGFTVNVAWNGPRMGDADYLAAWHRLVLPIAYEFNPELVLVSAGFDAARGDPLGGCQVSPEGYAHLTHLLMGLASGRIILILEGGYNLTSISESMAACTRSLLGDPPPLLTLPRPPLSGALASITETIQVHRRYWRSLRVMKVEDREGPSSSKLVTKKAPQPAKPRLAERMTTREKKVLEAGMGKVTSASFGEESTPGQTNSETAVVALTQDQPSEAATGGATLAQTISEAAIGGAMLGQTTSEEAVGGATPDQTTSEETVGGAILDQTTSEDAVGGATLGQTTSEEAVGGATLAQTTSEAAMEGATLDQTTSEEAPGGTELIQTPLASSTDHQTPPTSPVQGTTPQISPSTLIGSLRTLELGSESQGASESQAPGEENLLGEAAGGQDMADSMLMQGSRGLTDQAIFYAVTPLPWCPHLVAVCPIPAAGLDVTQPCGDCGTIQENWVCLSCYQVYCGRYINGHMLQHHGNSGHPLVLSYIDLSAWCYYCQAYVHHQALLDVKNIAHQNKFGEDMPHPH

Sequence of MMP-12 (P39900 106-470): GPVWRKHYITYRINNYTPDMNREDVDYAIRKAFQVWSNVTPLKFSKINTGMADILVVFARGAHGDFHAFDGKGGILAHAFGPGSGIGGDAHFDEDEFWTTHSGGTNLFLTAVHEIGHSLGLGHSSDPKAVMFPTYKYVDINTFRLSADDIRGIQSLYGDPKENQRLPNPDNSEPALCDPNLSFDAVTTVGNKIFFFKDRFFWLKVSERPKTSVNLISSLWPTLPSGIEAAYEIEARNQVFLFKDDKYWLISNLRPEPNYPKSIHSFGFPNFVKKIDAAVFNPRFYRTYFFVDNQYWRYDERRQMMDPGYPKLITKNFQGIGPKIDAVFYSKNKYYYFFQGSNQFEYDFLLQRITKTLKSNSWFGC

effect of large excess of MT on activity against MMP-12 (MMP-12; 30 nM inhibitor, up to 9 μM MT (300 equiv over inhibitor)): did not perturb the activity | pIC50 (MMP-12; read-out: IC50 against MMP-12): 7.52
SMILES: O=C(NCc1ccc(-c2ccccc2)cc1)c1cccc(=O)n1O [1,2-HOPO-2]

MMP-2 inhibition in the presence of combinations of competing proteins (MMP-2; CGS 3 nM, MT, Mb, Tf, hCAII combinations 400 nM each): no drop in inhibition | specificity for MMP-2 in the presence of excess MT (MMP-2; CGS 3 nM or NSA 30 nM, MT up to 50 equiv over MPi): maintain their specificity
SMILES: COc1ccc(S(=O)(=O)N(Cc2cccnc2)[C@@H](C(=O)NO)C(C)C)cc1 [CGS]
effect of Mb, Tf or hCAII as competing protein on MMP-2 inhibition (MMP-2; NSA 30 nM or CGS 3 nM, up to 166 equiv over CGS, up to 50 equiv over NSA): not titrating the MPi away from the MMP-2 target

SMILES: O=C(CCCCCCC(=O)Nc1ccccc1)NO [SAHA, suberolylanilide hydroxamic acid]
change in SAHA activity against HDAC-1 with increasing MT (HDAC-1): no substantial decrease | change in SAHA activity against HDAC-6 with increasing MT (HDAC-6): no substantial decrease
